Assay results from PubChem BioAssay AID1963984 (Molecular Pharmacology Branch, DTP, NCI, 2024).

Test system: 233499-124-R-J3-PDC spheroids with HUVEC/MSC, viability
Experiment: Anticancer human tumor 233499-124-R-J3-PDC patient-derived colon adenocarcinoma cell line growth inhibition [PI3K]
Conditions: for IC50: curve of first compound; for viability, T/C: stronger effect = lower value
Summary of the method: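 Complex 3D spheroids (cancer cells + endothelial HUVEC + mesenchymal stem cells); drug pairs of targeted agent x inavolisib/alpelisib/duvelisib/copanlisib; half-log series from ~Cmax, max 10 microM if Cmax unknown; endpoint viability.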

[1] = second compound 0.0316 µM, first compound 0.0316 µM
[2] = second compound 0.0316 µM, first compound 0.1 µM
[3] = second compound 0.0316 µM, first compound 0.316 µM
[4] = second compound 0.0316 µM, first compound 1 µM
[5] = second compound 0.0316 µM, first compound 3.16 µM
[6] = second compound 0.0316 µM, first compound 10 µM
[7] = second compound 0.1 µM, first compound 0.0316 µM
[8] = second compound 0.1 µM, first compound 0.1 µM
[9] = second compound 0.1 µM, first compound 0.316 µM
[10] = second compound 0.1 µM, first compound 1 µM
[11] = second compound 0.1 µM, first compound 3.16 µM
[12] = second compound 0.1 µM, first compound 10 µM
[13] = second compound 0.316 µM, first compound 0.0316 µM
[14] = second compound 0.316 µM, first compound 0.1 µM
[15] = second compound 0.316 µM, first compound 0.316 µM
[16] = second compound 0.316 µM, first compound 1 µM
[17] = second compound 0.316 µM, first compound 3.16 µM
[18] = second compound 0.316 µM, first compound 10 µM
[19] = second compound 1 µM, first compound 0.0316 µM
[20] = second compound 1 µM, first compound 0.1 µM
[21] = second compound 1 µM, first compound 0.316 µM
[22] = second compound 1 µM, first compound 1 µM
[23] = second compound 1 µM, first compound 3.16 µM
[24] = second compound 1 µM, first compound 10 µM
[25] = second compound 0.00316 µM, first compound 0.0316 µM
[26] = second compound 0.00316 µM, first compound 0.1 µM
[27] = second compound 0.00316 µM, first compound 0.316 µM
[28] = second compound 0.00316 µM, first compound 1 µM
[29] = second compound 0.00316 µM, first compound 3.16 µM
[30] = second compound 0.00316 µM, first compound 10 µM
[31] = second compound 0.01 µM, first compound 0.0316 µM
[32] = second compound 0.01 µM, first compound 0.1 µM
[33] = second compound 0.01 µM, first compound 0.316 µM
[34] = second compound 0.01 µM, first compound 1 µM
[35] = second compound 0.01 µM, first compound 3.16 µM
[36] = second compound 0.01 µM, first compound 10 µM
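Also: spheroids exposed to agents for seven days before readout.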
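For viability, T/C in this document: percent viability relative to DMSO vehicle control taken as 100%.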

C[C@@H](NC(=O)c1ncnc(N)c1Cl)c1ncc(C(=O)Nc2cc(C(F)(F)F)c(Cl)cn2)s1 + CC(Nc1ncnc2nc[nH]c12)c1cc2cccc(Cl)c2c(=O)n1-c1ccccc1
IC50 (second compound 0.0316 µM): > 10 µM | IC50 (second compound 0.1 µM): > 10 µM | IC50 (second compound 0.316 µM): > 10 µM | IC50 (second compound 1 µM): > 10 µM | IC50 (second compound 3.16 µM): > 10 µM | IC50 (second compound 10 µM): > 10 µM | viability, T/C [1]: 110% | viability, T/C [2]: 105% | viability, T/C [3]: 109% | viability, T/C [4]: 104% | viability, T/C [5]: 105% | viability, T/C [6]: 78.4% | viability, T/C [7]: 97.4% | viability, T/C [8]: 105% | viability, T/C [9]: 116% | viability, T/C [10]: 106% | viability, T/C [11]: 110% | viability, T/C [12]: 101% | viability, T/C [13]: 109% | viability, T/C [14]: 120% | viability, T/C [15]: 111% | viability, T/C [16]: 95.4% | viability, T/C [17]: 89.2% | viability, T/C [18]: 98.5% | viability, T/C [19]: 83.3% | viability, T/C [20]: 92.9% | viability, T/C [21]: 109% | viability, T/C [22]: 116% | viability, T/C [23]: 111% | viability, T/C [24]: 93.7% | viability, T/C (second compound 3.16 µM, first compound 0.0316 µM): 106% | viability, T/C (second compound 3.16 µM, first compound 0.1 µM): 101% | viability, T/C (second compound 3.16 µM, first compound 0.316 µM): 97.7% | viability, T/C (second compound 3.16 µM, first compound 1 µM): 109% | viability, T/C (second compound 3.16 µM, first compound 3.16 µM): 109% | viability, T/C (second compound 3.16 µM, first compound 10 µM): 95.6% | viability, T/C (second compound 10 µM, first compound 0.0316 µM): 87.8% | viability, T/C (second compound 10 µM, first compound 0.1 µM): 90.2% | viability, T/C (second compound 10 µM, first compound 0.316 µM): 101% | viability, T/C (second compound 10 µM, first compound 1 µM): 97.7% | viability, T/C (second compound 10 µM, first compound 3.16 µM): 108% | viability, T/C (second compound 10 µM, first compound 10 µM): 97%

CCCS(=O)(=O)Nc1ccc(F)c(C(=O)c2c[nH]c3ncc(-c4ccc(Cl)cc4)cc23)c1F + CC(Nc1ccc2c(c1)OCCn1cc(N3C(=O)OCC3C(F)F)nc1-2)C(N)=O
IC50 (second compound 0.00316 µM): 5.62 µM | IC50 (second compound 0.01 µM): 5.14 µM | IC50 (second compound 0.0316 µM): 4.72 µM | IC50 (second compound 0.1 µM): 5.02 µM | IC50 (second compound 0.316 µM): 3.38 µM | IC50 (second compound 1 µM): 1.79 µM | viability, T/C [25]: 80% | viability, T/C [26]: 97.9% | viability, T/C [27]: 98.6% | viability, T/C [28]: 105% | viability, T/C [29]: 104% | viability, T/C [30]: 2.87% | viability, T/C [31]: 90.2% | viability, T/C [32]: 94.5% | viability, T/C [33]: 97.1% | viability, T/C [34]: 98.2% | viability, T/C [35]: 84.9% | viability, T/C [36]: 2.03% | viability, T/C [1]: 77.3% | viability, T/C [2]: 90.3% | viability, T/C [3]: 85.8% | viability, T/C [4]: 101% | viability, T/C [5]: 75.8% | viability, T/C [6]: 1.54% | viability, T/C [7]: 84.8% | viability, T/C [8]: 83.9% | viability, T/C [9]: 88.5% | viability, T/C [10]: 88.3% | viability, T/C [11]: 82.8% | viability, T/C [12]: 0.93% | viability, T/C [13]: 86.6% | viability, T/C [14]: 66.6% | viability, T/C [15]: 66.9% | viability, T/C [16]: 69.2% | viability, T/C [17]: 54.5% | viability, T/C [18]: 4.16% | viability, T/C [19]: 73% | viability, T/C [20]: 45.4% | viability, T/C [21]: 54.9% | viability, T/C [22]: 61% | viability, T/C [23]: 41.8% | viability, T/C [24]: 2.26%

CC1(C)CCC(Nc2ncc(C(F)(F)F)c(-c3c[nH]c4c(P(C)(C)=O)c(C#N)ccc34)n2)CN1 (stereo not given) + CC(Nc1ccc2c(c1)OCCn1cc(N3C(=O)OCC3C(F)F)nc1-2)C(N)=O
IC50 (second compound 0.00316 µM): 0.0738 µM | IC50 (second compound 0.01 µM): < 0.0316 µM | IC50 (second compound 0.0316 µM): 0.094 µM | IC50 (second compound 0.1 µM): < 0.0316 µM | IC50 (second compound 0.316 µM): 0.0843 µM | IC50 (second compound 1 µM): < 0.0316 µM | viability, T/C [25]: 55.3% | viability, T/C [26]: 58.7% | viability, T/C [27]: 24.6% | viability, T/C [28]: 19.3% | viability, T/C [29]: 34.4% | viability, T/C [30]: 1.55% | viability, T/C [31]: 39.4% | viability, T/C [32]: 42.9% | viability, T/C [33]: 34.9% | viability, T/C [34]: 22.1% | viability, T/C [35]: 22.7% | viability, T/C [36]: 1.45% | viability, T/C [1]: 79.9% | viability, T/C [2]: 44.4% | viability, T/C [3]: 31.4% | viability, T/C [4]: 17% | viability, T/C [5]: 17.1% | viability, T/C [6]: 1.3% | viability, T/C [7]: 36.5% | viability, T/C [8]: 40.7% | viability, T/C [9]: 24.5% | viability, T/C [10]: 13.8% | viability, T/C [11]: 18.9% | viability, T/C [12]: 4.74% | viability, T/C [13]: 67.4% | viability, T/C [14]: 43% | viability, T/C [15]: 34.3% | viability, T/C [16]: 19.4% | viability, T/C [17]: 20.7% | viability, T/C [18]: 2.38% | viability, T/C [19]: 49% | viability, T/C [20]: 29.3% | viability, T/C [21]: 28.6% | viability, T/C [22]: 18.6% | viability, T/C [23]: 25.9% | viability, T/C [24]: 0.86%

CNC(=O)c1ccc(N2C(=S)N(c3ccc(C#N)c(C(F)(F)F)c3)C(=O)C2(C)C)cc1F + COc1c(OCCCN2CCOCC2)ccc2c3n(c(=NC(=O)c4cnc(N)nc4)nc12)CCN3
IC50 (second compound 0.00316 µM): > 10 µM | IC50 (second compound 0.01 µM): > 10 µM | IC50 (second compound 0.0316 µM): > 10 µM | IC50 (second compound 0.1 µM): 4.12 µM | IC50 (second compound 0.316 µM): < 0.0316 µM | IC50 (second compound 1 µM): < 0.0316 µM | viability, T/C [25]: 93.8% | viability, T/C [26]: 97.3% | viability, T/C [27]: 97.2% | viability, T/C [28]: 81.9% | viability, T/C [29]: 65.7% | viability, T/C [30]: 54.3% | viability, T/C [31]: 88.1% | viability, T/C [32]: 105% | viability, T/C [33]: 99% | viability, T/C [34]: 87.7% | viability, T/C [35]: 89.9% | viability, T/C [36]: 60.1% | viability, T/C [1]: 101% | viability, T/C [2]: 85.3% | viability, T/C [3]: 98.3% | viability, T/C [4]: 78.1% | viability, T/C [5]: 63.8% | viability, T/C [6]: 50.4% | viability, T/C [7]: 84% | viability, T/C [8]: 53.8% | viability, T/C [9]: 75.2% | viability, T/C [10]: 64.2% | viability, T/C [11]: 47.4% | viability, T/C [12]: 44% | viability, T/C [13]: 33% | viability, T/C [14]: 30.5% | viability, T/C [15]: 44.1% | viability, T/C [16]: 32.3% | viability, T/C [17]: 30.7% | viability, T/C [18]: 12.1% | viability, T/C [19]: 10% | viability, T/C [20]: 24.7% | viability, T/C [21]: 6.89% | viability, T/C [22]: 5.24% | viability, T/C [23]: 10.3% | viability, T/C [24]: 4.27%

Cn1nccc1Nc1nccc(-c2ccn(C(CO)c3ccc(Cl)c(F)c3)c(=O)c2)n1 (stereo not given) + CC(Nc1ccc2c(c1)OCCn1cc(N3C(=O)OCC3C(F)F)nc1-2)C(N)=O
IC50 (second compound 0.00316 µM): > 10 µM | IC50 (second compound 0.01 µM): 9.87 µM | IC50 (second compound 0.0316 µM): > 10 µM | IC50 (second compound 0.1 µM): > 10 µM | IC50 (second compound 0.316 µM): 0.694 µM | IC50 (second compound 1 µM): 0.211 µM | viability, T/C [25]: 81.3% | viability, T/C [26]: 95.2% | viability, T/C [27]: 80.5% | viability, T/C [28]: 104% | viability, T/C [29]: 52.7% | viability, T/C [30]: 58.2% | viability, T/C [31]: 83% | viability, T/C [32]: 81.6% | viability, T/C [33]: 74.3% | viability, T/C [34]: 74.9% | viability, T/C [35]: 59.5% | viability, T/C [36]: 50.2% | viability, T/C [1]: 95.6% | viability, T/C [2]: 100% | viability, T/C [3]: 71.8% | viability, T/C [4]: 55.7% | viability, T/C [5]: 79.3% | viability, T/C [6]: 66% | viability, T/C [7]: 76.3% | viability, T/C [8]: 77.3% | viability, T/C [9]: 82.3% | viability, T/C [10]: 63.2% | viability, T/C [11]: 53.1% | viability, T/C [12]: 48.1% | viability, T/C [13]: 78.3% | viability, T/C [14]: 73% | viability, T/C [15]: 58.6% | viability, T/C [16]: 45.9% | viability, T/C [17]: 39.6% | viability, T/C [18]: 36.3% | viability, T/C [19]: 55.8% | viability, T/C [20]: 58.6% | viability, T/C [21]: 43.5% | viability, T/C [22]: 41.6% | viability, T/C [23]: 38.9% | viability, T/C [24]: 27.8%
